Patent US8623919B2, “Method of synthesizing S-allyl-cysteine analogues and their therapeutic application in treating myocardial infarction” (Fudan University, priority 2007, dated 2014)

What was measured:
[1] = test system: myocardial cells; test: Lipid peroxidation (MDA, TBA) in hypoxia/reoxygenation injured myocardial cells; type: cell-based, Sprague-Dawley (SD) rat; conditions: 10^−5 mol/L
Protocol: Myocardial cell samples were obtained from the same procedure of Example 1, the experiment groups were divided and hypoxia/reoxygenation experiments were performed on Control group, Vehicle group, SAC and analogue groups, same as the experiments in Example 1 with the same dosages and same conditions. Myocardial cells were obtained from each sample (10^6 myocardial cells/sample) from the Control group, Vehicle group, SAC and analogue groups. The cells were lysed under sterilized condition, and lipid peroxidation experiments on the samples were performed. Since oxygen free radical attacks poly unsaturated fatty acid in biomembrane, inducing lipid peroxidation and producing MDA (malondialdehyde). MDA can react with thiobarbituric acid (TBA), forms red product, which can be detected in spectrophotometer at 532 nm. […] The inhibition effect could be reversed by PAG.

[2] = test system: myocardial cells; test: SOD activity (Hydroxylamine method) in hypoxia/reoxygenation injured myocardial cells; type: cell-based, Sprague-Dawley (SD) rat
Protocol: Myocardial cell samples were obtained from the same procedure of Example 1, the experiment groups were divided and hypoxia/reoxygenation experiments were performed on Control group, Vehicle group, SAC and analogue groups, same as the experiments in Example 1 with the same dosages and same conditions. Myocardial cells were obtained from each sample (10^6 myocardial cells/sample) from the Control group, Vehicle group, SAC and analogue groups. The cells were lysed under sterilized condition, and SOD (superoxide dismutase) activities in each sample of the cells were determined by Hydroxylamine method (a conventional method well known in the arts) using each microgram of protein per 1 milliliter reaction solution inhibits SOD activity to its 50% of original activity, in which the amount of SOD used in the reaction as standard of 1 unit of SOD activity.

[3] = test system: H9c2 cells; test: H9c2 cell viability by MTT method after H2O2 injury; type: cell-based; conditions: PAG group, PAG 10^−4 mol/L
Protocol: (§1) H9c2 cells were cultured in DMEM with 10% of fetal bovine serum, 37 degree C. and 5% CO2 incubator. The monolayer culture was split at a 1:4 ratio or harvested to perform experiments when confluence was 70-80%. Adjust the density of the cells to […] and inoculate the cells on a 96 well plate.
Control group, no SAC analogues treatment, no H2O2 injured process.
(§2) H2O2 injury (Model) group, no SAC analogues treatment, under H2O2 200 μmol/L for 2 hours.
(§3) PAG group, PAG 10^−4/mol/L
(§4) SPRC dosage groups: SPRC 1E-7, SPRC 1E-6, SPRC 1E-5, the cell groups were treated with SPRC dosages of 10^−7 mol/L, 10^−6 mol/L, 10^−5 mol/L respectively.
(§5) SPRC dosage+PAG groups: the cell group was treated with SPRC dosages of 10^−5 mol/L and PAG 10^−4 mol/L.
H9c2 cell viability was assessed by MTT method. […] PAG is able to block the effect of SPRC.

[4] = test system: H9c2 cells; test: MDA content of H9c2 cells injured by H2O2; type: cell-based; conditions: PAG group, PAG 10^−4 mol/L
Protocol: (§6) H9c2 cells were cultured same as Example 12, the cells were then divided into the groups same as Example 12.
(§7) The cells were lysed under sterilized condition, and lipid peroxidation experiments on the samples were performed. […] The effect of SPRC could be blocked by PAG, indicating SPRC mediates its effect on H9c2 cell by way of endogenous H2S.

[5] = test system: H9c2 cells; test: LDH leakage of H9c2 cells injured by H2O2; type: cell-based; conditions: PAG group, PAG 10^−4 mol/L
Protocol: as §1, §2, §3, §4, §5
The cell samples (10^6 cells/sample) from each group were lysed under sterilized condition, and LDH contents in each samples were tested by pyruvic acid production method.

[6] = test system: H9c2 cells; test: Mn-SOD activity of H9c2 cells injured by H2O2; type: cell-based; conditions: PAG group, PAG 10^−4 mol/L
Protocol: as §6, §7

[7] = test system: rats following MI injury; test: Serum CK in rats (sham or MI); type: in vivo, SD rats; conditions: Sham rats; 50 mg/Kg/day intraperitoneal
Protocol: (§8) Animals were assigned and prepared the same as in Example 7, and dosages of SPRC and SAC were used the same in this example as in Example 7.
(§9) Serum CK levels were detected with diagnostic kit (NJBI, China) according to the instructions. LDH were determined calorimetrically with a spectrophotometer. Lipid peroxidation was measured in terms of MDA content using the thiobarbituric acid (TBA) assay. […] With regard to lipid peroxidation, the levels of MDA in MI groups increased at 48 h after myocardial infarction. […] (FIG. 14)

[8] = test system: CSE; test: Western blot of CSE protein in left ventricle; type: in vivo, SD rats; conditions: MI rats, 50 mg/Kg/day, p<0.01
Text: as §8

[9] = test system: Bcl-2; test: Western blot of Bcl-2 protein in left ventricle; type: in vivo, SD rats; conditions: MI rats, 50 mg/Kg/day, p<0.01
Text: as §8

[10] = test system: rats following MI injury; test: Infarct size after TTC staining in rats following MI injury; type: in vivo, SD rats; conditions: 50 mg/Kg/day intraperitoneal, 7 days before and 2 days after ligation, 48 h after surgery, saline 36.0±1.3%
Protocol: (§10) SPRC and SAC were dissolved in saline (vehicle). Male SD rats (weight 200-250 g) were randomly assigned to […] treatment groups: group (1) Sham group: Sham-treated with saline (n=4), (2) Sham+SPRC group: Sham-treated with SPRC (50 mg/Kg/day) (n=4), (3) Sham+SAC group: Sham-treated with SAC (50 mg/Kg/day) (n=4), (4) MI group: MI treated with saline (n=8), (5) MI+SPRC group: MI treated with SPRC (50 mg/Kg/day) (n=8), (6) MI+SAC group: MI treated with SAC (50 mg/Kg/day) (n=8). Rats were pre-treated for seven days with each SAC analogues respectively via an intraperitoneal injection once daily before they were used for MI model studies. […] Briefly, the rats were anesthetized with 7% choral hydrate (60 mg/kg intraperitoneal injection), endotracheally intubated and mechanically ventilated with room air, respiratory rate 100 breaths/min, tidal volume 2.5 ml with a rodent ventilator (DHX-150, China). ECG was recorded in the anaesthetized animal for a period of one minute using the Animal Mflab200 amplifier (Produced in China). A left thoracotomy was performed and the third intercostal space was exposed. […] Then incisions were sutured and the chests were closed. […] Forty eight hours after the surgery, ECG was recorded for each rat in each group. […] To evaluate the effect of SPRC and SAC on MI, infarct size were measured after TTC staining (FIG. 12).

[11] = test system: Bax mRNA; test: RT-PCR of Bax mRNA in left ventricle; type: in vivo, SD rats; conditions: MI rats, 50 mg/Kg/day, p<0.05
Text: as §8
(§11) To further verify the effects of SPRC and SAC, the expressions of Bcl-2, Bax and CSE mRNA were accessed by RT-PCR (FIG. 17). An isoform of the CSE gene was detected (GenBank; access no. AY641456). The relative amounts of CSE mRNA in Left ventricular subjected to MI were increase 3.3-fold and 1.5-fold following SPRC and SAC exposure as compared to the MI group.

[12] = test system: CSE mRNA; test: RT-PCR of CSE mRNA in left ventricle; type: in vivo, SD rats; conditions: MI rats, 50 mg/Kg/day
Text: as §8, §11

[13] = test system: rats following MI injury; test: SOD activity in plasma of rats (sham or MI); type: in vivo, SD rats; conditions: 50 mg/Kg/day intraperitoneal
Protocol: as §8, §9

[14] = test system: rats following MI injury; test: Plasma H2S levels in rats (sham or MI); type: in vivo, SD rats; conditions: 50 mg/Kg/day intraperitoneal
Protocol: as §8
(§12) The plasma levels of H2S in each treatment group were determined since CSE mediates the endogenous production of H2S in mammals. Plasma H2S concentrations in MI group rats at 48 h after MI induction were 34.7±5.6 μM (n=8). […] Left ventricular CSE activity was analyzed in the tissue homogenates from each treatment group (n=6). CSE activity was 1.58±0.15 μmol/g protein/hr in left the ventricular tissues in MI group and 2.19±0.32 μmol/g protein/hr in the MI+SAC treated rats.

[15] = test system: Bax; test: Western blot of Bax protein in left ventricle; type: in vivo, SD rats; conditions: MI rats, 50 mg/Kg/day, p<0.01
Text: as §8

[16] = test system: rats following MI injury; test: Serum LDH in rats (sham or MI); type: in vivo, SD rats; conditions: Sham rats; 50 mg/Kg/day intraperitoneal
Protocol: as §8, §9

[17] = test system: rats following MI injury; test: MDA content (TBA assay) in rats (sham or MI); type: in vivo, SD rats; conditions: Sham rats; 50 mg/Kg/day intraperitoneal
Protocol: as §8, §9

[18] = test system: rats following MI injury; test: ECG in rats following MI injury; type: in vivo, SD rats; conditions: 50 mg/Kg/day, day 10, 48 hr after the induction of MI
Protocol: as §10

[19] = target: T1, CSE (Rattus norvegicus, UniProt P18757); test: Left ventricular CSE activity in tissue homogenates of rats; type: in vivo, SD rats; conditions: 50 mg/Kg/day; for CSE activity: left ventricle
T1 construct: from tissue; host or cells: rat left ventricle (homogenate), myocardial infarction model
T1 sequence (P18757 whole entry): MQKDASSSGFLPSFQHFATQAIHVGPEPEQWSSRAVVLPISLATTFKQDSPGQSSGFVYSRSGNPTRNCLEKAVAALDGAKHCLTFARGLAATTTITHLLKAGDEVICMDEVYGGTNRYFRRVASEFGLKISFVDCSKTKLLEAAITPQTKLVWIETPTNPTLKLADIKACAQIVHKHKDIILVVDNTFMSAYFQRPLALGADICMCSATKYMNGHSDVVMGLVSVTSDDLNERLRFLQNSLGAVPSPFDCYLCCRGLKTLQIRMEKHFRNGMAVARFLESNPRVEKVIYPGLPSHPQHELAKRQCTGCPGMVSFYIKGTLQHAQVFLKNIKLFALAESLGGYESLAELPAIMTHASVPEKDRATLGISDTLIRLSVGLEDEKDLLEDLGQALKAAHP
Protocol: as §8, §12
SPRC administered rats had the highest CSE activity of 2.58±0.07 μmol/g protein/hr (p<0.01) (FIG. 15B). This observation correlated with the observed increases in H2S concentrations in the same treatment groups.

[20] = test system: Bcl-2 mRNA; test: RT-PCR of Bcl-2 mRNA in left ventricle; type: in vivo, SD rats; conditions: MI rats, 50 mg/Kg/day, p>0.05
Text: as §8, §11

## CCSC[C@H](N)C(=O)O [SEC, S-ethyl-L-cysteine]
[1]
  lipid peroxidation (MDA): inhibited
[2]; 10^−5 mol/L
  Mn-SOD activity in mitochondria: able to elevate
[2]; with PAG
  effect of PAG on elevating Mn-SOD activity: PAG also reversed

## C#CCC(N)C(=O)O (racemic) [PAG, DL-propargylglycine, reference compound]
[3]
  H9c2 Cell Survive: 58.9 ± 1.2%
[4]
  MDA Content: 2.71 ± 0.26 nmol/mgprot
[5]
  LDH Leakage: 63.4 ± 1.2%
[6]
  Mn-SOD Activity: 7.57 ± 0.83 U/mgprot

## CCCCSC[C@H](N)C(=O)O [SBC, S-butyl-L-cysteine]
[2]; 10^−5 mol/L
  Cu—Zn SOD activity in cytoplasm: able to elevate
[2]; with PAG
  effect of PAG on elevating Cu—Zn SOD activity: PAG also reversed the effect

## CCCSC[C@H](N)C(=O)O [SPC, S-propyl-L-cysteine]
[1]
  lipid peroxidation (MDA): inhibited
[2]; 10^−5 mol/L
  Cu—Zn SOD activity in cytoplasm: able to elevate
[2]; with PAG
  effect of PAG on elevating Cu—Zn SOD activity: PAG also reversed the effect

## C=CCSC[C@H](N)C(=O)O [SAC, S-Allyl-Cysteine]
[7]
  CK: 0.250 ± 0.019 U/ml
[8]
  CSE protein expression: up-regulated
[9]
  Bcl-2 protein expression: up-regulated
[10]
  infarct size/total area of myocardium: 24.9±1.9%
[11]
  Bax gene expression: down regulated
[12]
  relative amounts of CSE mRNA, increase as compared to the MI group: 1.5 fold
[13]; MI rats, 48 h after MI
  SOD: 107.1 ± 5.4 U/ml
[13]; Sham rats
  SOD: 159.8 ± 4.8 U/ml
[14]; MI rats, 48 h after MI induction, 50 mg/kg/day
  H2S concentration in plasma: 61.1 ± 3.6 µM
[14]; Sham rats
  H2S concentration in plasma: 65.2 ± 4.4 µM
[15]
  Bax protein levels: down-regulated
[16]
  LDH: 2599 ± 212 U/L
[17]
  MDA: 3.57 ± 0.31 nmol/mL
[18]
  ST-segment elevation in ECG: less elevated ST-segment
[19]; MI rats
  CSE activity: 2.19 ± 0.32 μM/mgprot
[19]; MI rats, left ventricular tissue homogenates, MI group 1.58±0.15
  Left ventricular CSE activity: 2.19±0.32 μmol/g protein/hr
[19]; Sham rats
  CSE activity: 2.31 ± 0.24 μM/mgprot
[20]
  Bcl-2 gene expression: no significant differences

## CCCCCSC[C@H](N)C(=O)O [SPEC, S-pentyl-L-cysteine]
[2]; 10^−5 mol/L
  Cu—Zn SOD activity in cytoplasm: able to elevate
[2]; with PAG
  effect of PAG on elevating Cu—Zn SOD activity: PAG also reversed the effect
